Assay type in all cases: biochemical
For test [1], the target named is EGFR kinase (Homo sapiens (Human), UniProt P00533). The test can be described thus: EGFR kinase assay. How it is done:
Inhibition of EGFR kinase activity by compounds disclosed herein is quantified by measuring the amount of [^33P] incorporated into the substrate in the presence of a test compound. Briefly, a reaction mixture of 25 μL final volume containing 25 ng of EGFR kinase (EGFR kinase domain alone, Millipore), 3 μg of the substrate [poly(Glu-Tyr), Sigma], kinase reaction buffer (10 mM MOPS pH 7.0, 0.3 mM EDTA, 0.5% glycerol, 0.001% Brij-35, 10 mM MnCl2, 0.1 mg/ml BSA, 100 μM ATP, 0.1 μCi per well [^33P]-γ-ATP (2,500-3,000 Ci/mmol)), and a test compound (100 nM, diluted with 4% DMSO) or DMSO (as the control) was incubated at 30° C. for 30 minutes. The reaction was stopped by adding 5 μL of 3% phosphoric acid solution. The resultant reaction solution was then harvested onto a filter plate (UniFilter-96 GF/B, PerkinElmer), washed 20 times for 5 min with d.d. H2O, and followed by the addition of 30 μL of MicroScint™-20 Cocktail (PerkinElmer). The radioactivity retained on the filter membrane was measured by TopCount™ scintillation detector (PerkinElmer). The results were analyzed by using linear regression software (GraphPad Prism™ 4; GraphPad Software Inc.). IC50 value is defined as the concentration of the test compound which achieves a half-maximal inhibition of the kinase activity.

For test [2], the target named is FLT3 kinase (Homo sapiens (Human), UniProt P36888). Put plainly: FLT3 kinase assay. How it is done:
Inhibition of FLT3 kinase activity by compounds disclosed herein was quantified by measuring the amount of [^33P] incorporated into the substrate in the presence of a test compound. Briefly, a reaction mixture of 25 μL final volume containing 5 ng of Flt3 kinase (obtained by purifying recombinant N-terminal 6×His-tagged Flt3 kinase domain construct expressed from baculovirus), 5 μg of the substrate (Poly(Glu-Tyr, 4:1, Sigma)), kinase reaction buffer (20 mM MOPS pH 7.0, 1 mM EDTA, 5% glycerol, 0.01% Brij-35, 0.1% β-mercaptoethanol, 1 mg/mL BSA, 100 μM ATP, 0.1 μCi per well [^33P]-γ-ATP (2,500-3,000 Ci/mmol)), and a test compound (100 nM, diluted with 4% DMSO) or DMSO (as the control) was incubated at 30° C. for 30 minutes. The reaction was stopped by adding 5 μL of 3% phosphoric acid solution. The resultant reaction solution was then harvested onto a filter plate (UniFilter-96 GF/B, PerkinElmer), washed 20 times for 5 min with d.d. H2O, and followed by the addition of 30 μL of MicroScint™-20 Cocktail (PerkinElmer). The plate was then sealed and counted using a TopCount™ scintillation detector (PerkinElmer). IC50 value is defined as the concentration of the test compound which achieves a half-maximal inhibition of the kinase activity.

The target in test [3] is FGFR1 kinase (Homo sapiens (Human), UniProt P11362). The test can be described thus: FGFR1 kinase assay. How it is done: Inhibition of FGFR1 kinase activity by compounds disclosed herein was quantified by measuring the amount of [^33P] incorporated into the substrate in the presence of a test compound. Briefly, a reaction mixture of 25 μL final volume containing 1 ng of FGFR1 kinase (FGFR1 kinase domain alone, Millipore), 5 μg of the substrate [poly(Glu-Tyr), Sigma], kinase reaction buffer (14 mM MOPS pH 7.0, 0.2 mM EDTA, 0.5% glycerol, 0.001% Brij-35, 0.01% β-mercaptoethanol, 0.1 mg/ml BSA, 100 μM ATP, 0.1 μCi per well [^33P]-γ-ATP (2,500-3,000 Ci/mmol)), and a test compound (100 nM, diluted with 4% DMSO) or DMSO (as the control) was incubated at 30° C. for 60 minutes. The reaction was stopped by adding 5 μL of 3% phosphoric acid solution. The resultant reaction solution was then harvested onto a filter plate (UniFilter-96 GF/B, PerkinElmer), washed 20 times for 5 min with d.d. H2O, and followed by the addition of 30 μL of MicroScint™-20 Cocktail (PerkinElmer). The radioactivity retained on the filter membrane was measured by TopCount™ scintillation detector (PerkinElmer). The results were analyzed by using linear regression software (GraphPad Prism™ 4; GraphPad Software Inc.). IC50 value is defined as the concentration of the test compound which achieves a half-maximal inhibition of the kinase activity.
Chain of FGFR1 kinase (P11362 478-767): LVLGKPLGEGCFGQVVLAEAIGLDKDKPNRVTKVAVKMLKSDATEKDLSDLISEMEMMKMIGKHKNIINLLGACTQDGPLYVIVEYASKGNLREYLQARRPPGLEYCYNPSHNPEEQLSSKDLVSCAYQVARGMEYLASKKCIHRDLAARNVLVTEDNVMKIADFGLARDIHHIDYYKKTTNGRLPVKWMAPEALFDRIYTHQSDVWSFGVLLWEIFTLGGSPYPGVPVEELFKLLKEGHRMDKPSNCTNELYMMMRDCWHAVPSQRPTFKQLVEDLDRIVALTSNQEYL

Test [4] addresses B-Raf (V600E) (Homo sapiens (Human), UniProt P15056, V600E). The test can be described thus: Raf kinase assay (B-Raf (V600E)), [33P] incorporation into MEK1(K97R). The method in brief: (§1)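 [33P] transfer to kinase-dead MEK1(K97R) substrate (500 ng) measured after 30 min at 30 °C in Tris pH 7.5 buffer containing 8 μM ATP. Enzyme inputs were 2 ng for C-Raf and 5 ng for B-Raf and B-Raf V600E. Duplicate 3-fold serial dilutions gave the half-maximal inhibitory concentration.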

Test [5] concerns the target VEGFR2 kinase (Homo sapiens (Human), UniProt P35968). Put plainly: VEGFR2 kinase assay. The procedure:
Inhibition of VEGFR2 kinase activity by compounds disclosed herein was quantified by measuring the amount of [^33P] incorporated into the substrate in the presence of a test compound. […] The reaction was then stopped by adding 5 μL of 3% phosphoric acid solution. The resultant solution was transferred to and harvested by a filter plate (UniFilter-96 GF/B, PerkinElmer). The filter plate was then washed 20 times with d.d. H2O for 5 min followed by the addition of 30 μL of MicroScint™-20 Cocktail (PerkinElmer). After the plate was sealed, the retained radioactivity on the filter was counted using a TopCount™ scintillation detector (PerkinElmer). […]

Test [6] concerns the target C-Raf (Homo sapiens (Human), UniProt P04049). Put plainly: Raf kinase assay (C-Raf), [33P] incorporation into MEK1(K97R). The method in brief:
as §1

Test [7] deals with B-Raf (Homo sapiens (Human), UniProt P15056). The test can be described thus: Raf kinase assay (B-Raf), [33P] incorporation into MEK1(K97R). An outline of the steps:
as §1

Broadly, the IC50 is the point on the concentration scale where inhibition reaches its midpoint. Low values mean greater potency in that assay, high ones weaker potency in that assay. One may read the inhibition as the drop in the measured response relative to a control, in per cent.

Chain of B-Raf (P15056 whole entry): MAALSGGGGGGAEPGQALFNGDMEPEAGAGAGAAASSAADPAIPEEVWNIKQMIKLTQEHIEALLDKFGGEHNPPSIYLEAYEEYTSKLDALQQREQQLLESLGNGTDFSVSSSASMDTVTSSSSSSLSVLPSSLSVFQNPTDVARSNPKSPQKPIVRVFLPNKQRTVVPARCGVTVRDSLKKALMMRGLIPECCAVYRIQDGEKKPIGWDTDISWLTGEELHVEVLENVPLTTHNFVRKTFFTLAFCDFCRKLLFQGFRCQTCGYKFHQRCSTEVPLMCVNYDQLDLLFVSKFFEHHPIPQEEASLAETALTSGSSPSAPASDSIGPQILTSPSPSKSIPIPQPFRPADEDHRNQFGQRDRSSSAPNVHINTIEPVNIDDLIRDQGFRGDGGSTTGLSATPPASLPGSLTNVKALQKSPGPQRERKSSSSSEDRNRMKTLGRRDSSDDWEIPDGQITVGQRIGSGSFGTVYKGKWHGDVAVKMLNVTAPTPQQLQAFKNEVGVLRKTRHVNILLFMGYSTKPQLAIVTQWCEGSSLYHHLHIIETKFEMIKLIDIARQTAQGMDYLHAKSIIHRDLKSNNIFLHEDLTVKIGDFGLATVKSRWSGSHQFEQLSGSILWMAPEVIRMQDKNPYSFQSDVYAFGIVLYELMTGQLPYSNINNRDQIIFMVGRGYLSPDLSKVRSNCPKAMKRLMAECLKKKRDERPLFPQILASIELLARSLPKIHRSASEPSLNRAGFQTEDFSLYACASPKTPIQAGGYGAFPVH
Chain of FLT3 kinase (P36888 610-943): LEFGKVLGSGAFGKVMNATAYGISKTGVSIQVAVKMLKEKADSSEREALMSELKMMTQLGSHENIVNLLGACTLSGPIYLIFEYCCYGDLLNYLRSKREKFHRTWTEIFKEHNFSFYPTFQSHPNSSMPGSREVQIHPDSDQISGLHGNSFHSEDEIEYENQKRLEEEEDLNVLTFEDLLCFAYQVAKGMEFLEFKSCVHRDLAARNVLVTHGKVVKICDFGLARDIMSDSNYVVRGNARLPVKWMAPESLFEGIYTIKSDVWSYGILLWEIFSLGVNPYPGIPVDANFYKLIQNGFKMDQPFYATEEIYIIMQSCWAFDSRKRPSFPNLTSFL
Chain of C-Raf (P04049 whole entry): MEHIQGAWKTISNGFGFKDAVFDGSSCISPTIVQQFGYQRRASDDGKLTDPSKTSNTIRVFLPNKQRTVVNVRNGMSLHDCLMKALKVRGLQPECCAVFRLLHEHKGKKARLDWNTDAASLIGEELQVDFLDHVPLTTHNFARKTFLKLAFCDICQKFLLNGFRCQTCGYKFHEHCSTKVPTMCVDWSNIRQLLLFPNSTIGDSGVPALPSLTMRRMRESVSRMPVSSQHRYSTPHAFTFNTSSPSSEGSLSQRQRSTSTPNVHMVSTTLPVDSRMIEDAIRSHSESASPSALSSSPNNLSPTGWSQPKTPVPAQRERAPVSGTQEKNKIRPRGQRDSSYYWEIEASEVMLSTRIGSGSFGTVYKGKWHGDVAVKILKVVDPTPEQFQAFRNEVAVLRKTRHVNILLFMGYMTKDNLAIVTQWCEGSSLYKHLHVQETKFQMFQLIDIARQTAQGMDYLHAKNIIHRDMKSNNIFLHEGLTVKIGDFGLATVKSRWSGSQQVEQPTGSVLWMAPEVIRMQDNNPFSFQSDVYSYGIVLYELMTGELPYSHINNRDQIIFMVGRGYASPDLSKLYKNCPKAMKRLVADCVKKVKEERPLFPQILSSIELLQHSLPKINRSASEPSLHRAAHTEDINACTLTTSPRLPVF
Chain of EGFR kinase (P00533 712-979): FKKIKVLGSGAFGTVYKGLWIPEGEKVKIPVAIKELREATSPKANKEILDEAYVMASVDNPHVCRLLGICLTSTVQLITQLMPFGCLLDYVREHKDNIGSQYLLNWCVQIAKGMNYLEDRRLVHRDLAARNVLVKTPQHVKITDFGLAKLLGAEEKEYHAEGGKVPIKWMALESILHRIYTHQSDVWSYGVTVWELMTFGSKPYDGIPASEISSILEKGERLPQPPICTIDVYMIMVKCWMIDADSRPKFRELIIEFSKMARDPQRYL
Chain of B-Raf (V600E) (P15056 whole entry V600E): as the sequence (P15056 whole entry) above, with V600E counted along it
Chain of VEGFR2 kinase (P35968 834-1162): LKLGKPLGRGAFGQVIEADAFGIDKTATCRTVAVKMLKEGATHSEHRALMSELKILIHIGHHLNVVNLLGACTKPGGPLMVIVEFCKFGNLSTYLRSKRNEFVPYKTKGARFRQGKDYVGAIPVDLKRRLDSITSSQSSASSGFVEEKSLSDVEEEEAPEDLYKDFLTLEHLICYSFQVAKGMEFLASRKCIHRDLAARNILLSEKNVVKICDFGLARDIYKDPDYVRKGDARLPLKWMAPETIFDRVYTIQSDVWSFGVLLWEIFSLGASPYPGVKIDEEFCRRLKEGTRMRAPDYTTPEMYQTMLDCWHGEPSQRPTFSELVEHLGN

Consider `COc1cc(-c2ccc3ncnc(Nc4ccc(O)cc4)c3c2)ccc1O` [Compound 19, 4-(4-(4-hydroxyphenylamino)quinazolin-6-yl)-2-methoxyphenol], for which the IC50 in test [1] was 56.4 nM; in test [2] it was 146 nM; in test [3], 1440 nM; in test [4], 522 nM; in test [5], 5400 nM; in test [6], 503 nM. This compound also came in with an IC50 in test [7] of 557 nM. Moreover, the inhibition at 1 µM in test [7] (1.0 μM compound, read-out: B-Raf inhibition at 1.0 μM) amounted to 55.8%.

The values are drawn from patent publication US8785459B2, “Quinazoline compounds as kinase inhibitors” (Development Center for Biotechnology, priority 2011, dated 2014).
